# According to patent US7084239B1, “Cancer peptides of NY-ESO-1/CAG-3” (The United States of America as represented by the …, priority 1997, dated 2006):
# Key:
# CTL clone 14 = assay: T cell recognition of peptide-pulsed EBV B cells by CTL clone 14; type: cell-based, human; settings: peptide pulsed onto EBV B cells
# Excerpt: FIGS. 6A–6H. CTL clones 2 and 14 recognize the NY-ESO-1 gene, but not the ESO10-53 peptide derived from the NY-ESO-1 protein. CTL clones 2, 14 and 5 recognized NY-ESO-1 when cotransfected with HLA-A31 cDNA into COS-7 (FIG. 6A, C, E and G). TIL1244, which recognized TRP-2 But not NY-ESO-1, was used as a specificity control. FIGS. 6B, D, F and H. CTL clones 2, 5, 14, and TIL1244 recognized 586mel. […] TIL1244 recognized the TRP197-205 peptide derived from TRP-2, 586EBV B cells alone or pulsed with the ORF3P peptide from an alternative reading frame of TRP1 were negative controls. 397mel is an HLA-A31-negative, NY-ESO-1-positive tumor line.
# DNA transfection and GM-CSF assay were done as previously described (Wang, R. F., P. F. Robbins, Y. Kawakami, X. Q. Kang, and S. A. Rosenberg, 1995, J. Exp. Med. 181:799–804). Briefly, […] of DNA carrying a different fragment and 50 ng of the HLA-A31 DNA were mixed with 2 μl of lipofectamine in 100 μl of serum-free DMEM for 15–45 min. The DNA/lipofectamine mixture was then added to the COS-7 (5×10^4) cells and incubated overnight. The following day, cells were washed twice with DMEM medium. […] After 18–24 h incubation, 100 μl of supernatant was collected and GM-CSF was measured in a standard ELISA assay (R+D Systems, Minneapolis, Minn.). […]
# CTL clone 5 = assay: Chromium release cytolysis of peptide-pulsed target cells by CTL clone 5; type: cell-based, human
# Protocol: FIGS. 5A–5C. Characterization of the 9-mer ESO9-54 and 10-mer ESO10-53 derived from the normal open reading frame. FIG. 5A. 586EBV or 1510EBV B cells were pulsed with ESO10-53 and ESO9-54 peptides at different concentrations for 120 min. After two washes with AIM-V medium with 120 IU IL-2, CTL clone 5 (1×10^5/well) was added and incubated for 18 to 24 h. GM-CSF release by CTL clone 5 was determined by ELISA. FIG. 5B. 586mel cells were lysed by CTL clone 5, but 397mel cells were not lysed by CTL clone 5 at different E:T ratios. FIG. 5C. 586EBV and 1510EBV B cells were labeled with chromium overnight. The ESO10-53 peptide was then pulsed on the chromium-labeled 586EBV, 1510EBV, and T2 cells for 120 min. An irrelevant peptide containing an HLA-A31 peptide-binding motif was also pulsed on chromium-labeled 586EBV, 1510EBV B cells as negative controls. After peptide incubation and two washes, cytolysis of target cells by CTL clone 5 was determined in a 4-h chromium release assay. T2 pulsed with the ESO10-53 peptide was used for the specificity control.
# Cytolytic assay was done as previously described (Kawakami, Y et al., 1994, Proc. Natl. Acad. Sci. USA 91:6458–62). Briefly, the target cells were labeled with chromium for 90 min. After washing three times, the cells were incubated with peptides at a concentration of 1 μg/ml for 90 min. The cells were washed again, counted, and then mixed with TIL586 or CTL clone 5 at the indicated ratio of effector: targets (E:T). Chromium release was measured after 4 h incubation. The peptides were synthesized by a solid-phase method using a peptide synthesizer (Model AMS 422, Gilson Co., Inc., Worthington, Ohio). Some peptides were purified by HPLC and had greater than 98% in purity. […] Percentage of specific lysis was determined from the equation (A−B)/(C−B)×100 where A is lysis of 586EBV B cells by TIL586 or clone 5 in the presence of a peptide, B is spontaneous release from 586EBV B cells in presence of the same peptide but in the absence of effector cells, and C is the maximum chromium release. […]
sequence,measurement,setting,value
ASGPGGGAPR (listed as Homo sapiens) [ESO10-53],"Recognition by CTL clone 14, in words",CTL clone 14,did not recognize
same,"Recognition by CTL clone 14, in words",CTL clone 14; listed as ESO 10-53,failed to recognize
same,Lysis of peptide-incubated 586EBV or 1510EBV by CTL clone 5,"CTL clone 5; E:T ratio of 2.5:1, 4-h chromium release",5–10%
same,Lysis of peptide-incubated 586EBV or 1510EBV by CTL clone 5,"CTL clone 5; E:T ratio of 40:1, 4-h chromium release",> 60%
same,Lysis of HLA-A31-negative T2 cells pulsed with peptide by CTL clone 5,"CTL clone 5; T2 cells, specificity control (FIG. 5C)",nor did it lyse
